Legend:
[1] = tested on: IL-6 secretion by normal human bladder smooth muscle cells; assay: IL-6 ELISA of normal human bladder smooth muscle cell supernatants; assay type: cell-based; conditions: for IL-6 (pg/ml) Subject 1 / IL-6 (pg/ml) Subject 2: Carbachol 10^−3 M plus analgesic 50 μM; for IL-6 (pg/ml) Subject 1: carbachol alone 232, unstimulated <5, mean of duplicates; for IL-6 (pg/ml) Subject 2: carbachol alone 278, unstimulated <5; for effect on the effect of carbachol and LPS on IL-6 responses: LPS-induced responses: analgesic at either 5 μM or 50 μM
Method: Culture supernatants were subjected to cytokine-specific ELISA to determine IL-1β, IL-6 and TNF-α responses in cultures of macrophages treated with analgesic, LPS alone or a combination of LPS and analgesic. The assays were performed on Nunc MaxiSorp Immunoplates (Nunc) coated overnight with 100 μl of anti-mouse IL-6, TNF-α mAbs (BD Biosciences) or IL-1β mAb (R&D Systems) in 0.1 M sodium bicarbonate buffer (pH 9.5). After two washes with PBS (200 μl per well), 200 μl of PBS 3% BSA were added in each well (blocking) and the plates incubated for 2 hours at room temperature. Plates were washed again two times by addition of 200 μl per well, 100 μl of cytokine standards and serial dilutions of culture supernatants were added in duplicate and the plates were incubated overnight at 4° C. Finally, the plates were washed twice and incubated with 100 μl of secondary biotinylated anti-mouse IL-6, TNFα mAbs (BD Biosciences) or IL-1β (R&D Systems) followed by peroxidase-labelled goat anti-biotin mAb (Vector Laboratories). The colorimetric reaction was developed by the addition of 2,2′-azino-bis(3)-ethylbenzylthiazoline-6-sulfonic acid (ABTS) substrate and H2O2 (Sigma) and the absorbance measured at 415 nm with a Victor® V multilabel plate reader (PerkinElmer).
Normal human bladder smooth muscle cells were isolated by enzymatic digestion from macroscopically normal pieces of human bladder. Cells were expended in vitro by culture at 37° C. in a 5% CO2 atmosphere in RPMI 1640 supplemented with 10% fetal bovine serum, 15 mM HEPES, 2 mM L-glutamine, 100 U/ml penicillin, and […] of streptomycin and passage once a week by treatment with trypsin to detach cells followed by reseeding in a new culture flask. The first week of culture, the culture medium was supplemented with 0.5 ng/ml epidermal growth factor, 2 ng/ml fibroblast growth factor, and 5 μg/ml insulin.
Bladder smooth muscle cells trypsinized and seeded in microculture plates at a cell density of 3×10^4 cells per well in 100 μl were treated with analgesic solutions (50 μl/well) either alone or together carbachol (10-Molar, 50 μl/well), as an example of non-inflammatory stimuli, or lipopolysaccharide (LPS) of Salmonella typhimurium (1 μg/ml, 50 μl/well), as an example of […] stimuli. When no other effectors were added to the cells, 50 μl of RPMI 1640 without fetal bovine serum were added to the wells to adjust the final volume to 200 μl.
After 24 hours of culture, 150 μl of culture supernatants were collected, spun down for 2 min at 8,000 rpm at 4° C. to remove cells and debris and stored at −70° C. for analysis of Prostaglandin E2 (PGE2) responses by ELISA. Cells were fixed, permeabilized and blocked for detection of COX2 using a fluorogenic substrate. In selected experiment cells were stimulated 12 hours in vitro for analysis of COX2, PGE2 and cytokine responses.
COX2 and PGE2 responses were analyzed as described in Example 3. Cytokine responses were analyzed as described in Example 2.

[2] = tested on: expression of co-stimulatory molecules by Raw 264 macrophage cells; assay: Flow cytometry of co-stimulatory molecules CD40 and CD80 on macrophages treated with analgesic, with or without LPS; assay type: cell-based, Murine; conditions: for effect on basal expression of co-stimulatory molecules CD40 and CD80 by macrophages: 5 × 10^5, 5 × 10^4, 5 × 10^3, 5 × 10^2, 50 and 5 nM
Method: Murine RAW264.7 or J774 macrophage cells (obtained from ATCC) were used in this study. Cells were maintained in a culture medium containing RPMI 1640 supplemented with 10% fetal bovine serum (FBS), 15 mM HEPES, 2 mM L-glutamine, 100 U/ml penicillin, and 100 μg/ml of streptomycin. Cells were cultured at 37° C. in a 5% CO2 atmosphere and split (passages) once a week.
RAW264.7 macrophage cells were seeded in 96-well plates at a cell density of 1.5×10^5 cells per well in 100 μl of the culture medium. […] Briefly, the analgesics were dissolved in FBS-free culture medium (i.e., RPMI 1640 supplemented with 15 mM HEPES, 2 mM L-glutamine, 100 U/ml penicillin, and 100 μg/ml of streptomycin), and diluted to desired concentrations by serial dilution with the same medium. For cells treated with analgesic in the absence of LPS, 50 μl of analgesic solution and 50 μl of FBS-free culture medium were added to each well. For cells treated with analgesic in the presence of LPS, 50 μl of analgesic solution and 50 μl of LPS (from Salmonella typhimurium) in FBS-free culture medium were added to each well. All conditions were tested in duplicates.
After 24 or 48 hours of culture, 150 μl of culture supernatants were collected, spun down for 2 min at 8,000 rpm at 4° C. to remove cells and debris and stored at −70° C. for analysis of cytokine responses by ELISA. The cells were collected and washed by centrifugation (5 min at 1,500 rpm at 4° C.) in 500 μl of Phosphate buffer (PBS). Half of the cells were then snap frozen in liquid nitrogen and stored at −70° C. The remaining cells were stained with fluorescent monoclonal antibodies and analyzed by flow cytometry.
For flow cytometry analysis, macrophages were diluted in 100 μl of FACS buffer (phosphate buffered saline (PBS) with 2% bovine serum albumin (BSA) and 0.01% NaN3) and stained 30 min at 4° C. by addition of FITC-conjugated anti-CD40, PE-conjugated anti-CD80, PE-conjugated anti-CD86 antibody, anti MHC class II (I-A^d) PE (BD Bioscience). Cells were then washed by centrifugation (5 min at 1,500 rpm at 4° C.) in 300 μl of FACS buffer. After a second wash, cells were re-suspended in 200 μl of FACS buffer and the percentage of cells expressing a given marker (single positive), or a combination of markers (double positive) were analyzed with the aid of an Accuri C6 flow cytometer (BD Biosciences).

[3] = analgesic alone, 5 nM, negative control 20.6
[4] = analgesic alone, 50 nM, negative control 20.6
[5] = analgesic alone, 500 nM, negative control 20.6
[6] = analgesic alone, 5 × 10^3 nM, negative control 20.6
[7] = analgesic alone, 5 × 10^4 nM, negative control 20.6
[8] = analgesic alone, 5 × 10^5 nM, negative control 20.6
[9] = analgesic alone, 5 × 10^6 nM, negative control 20.6
[10] = analgesic plus LPS, analgesic 5 nM, LPS 5 ng/ml alone 77.8
[11] = analgesic plus LPS, analgesic 50 nM, LPS 5 ng/ml alone 77.8
[12] = analgesic plus LPS, analgesic 500 nM, LPS 5 ng/ml alone 77.8
[13] = analgesic plus LPS, analgesic 5 × 10^3 nM, LPS 5 ng/ml alone 77.8
[14] = analgesic plus LPS, analgesic 5 × 10^4 nM, LPS 5 ng/ml alone 77.8
[15] = analgesic plus LPS, analgesic 5 × 10^5 nM, LPS 5 ng/ml alone 77.8
[16] = analgesic plus LPS, analgesic 5 × 10^6 nM, LPS 5 ng/ml alone 77.8

## COc1ccc2cc([C@H](C)C(=O)O)ccc2c1 [Naproxen]
[1]
  IL-6 (pg/ml) Subject 1: 114 pg/mL
  IL-6 (pg/ml) Subject 2: 127 pg/mL
  effect on the effect of carbachol and LPS on IL-6 responses: suppress
[2]; 5 × 10^6 nM
  effect on expression of the co-stimulatory molecules at the highest dose: enhance
[2]
  effect on basal expression of co-stimulatory molecules CD40 and CD80 by macrophages: inhibit
[2]; [3]
  % Positive CD40+CD80+: 5.2%
[2]; [4]
  % Positive CD40+CD80+: 6.8%
[2]; [5]
  % Positive CD40+CD80+: 7.2%
[2]; [6]
  % Positive CD40+CD80+: 6.9%
[2]; [7]
  % Positive CD40+CD80+: 7.7%
[2]; [8]
  % Positive CD40+CD80+: 9.6%
[2]; [9]
  % Positive CD40+CD80+: 37%
[2]; [10]
  % Positive CD40+CD80+: 73%
[2]; [11]
  % Positive CD40+CD80+: 72%
[2]; [12]
  % Positive CD40+CD80+: 68.8%
[2]; [13]
  % Positive CD40+CD80+: 71.0%
[2]; [14]
  % Positive CD40+CD80+: 77.1%
[2]; [15]
  % Positive CD40+CD80+: 74.1%
[2]; [16]
  % Positive CD40+CD80+: 66.0%

## CC(C)Cc1ccc(C(C)C(=O)O)cc1 (stereo not drawn) [Ibuprofen, ibuprofen]
[1]
  IL-6 (pg/ml) Subject 1: 107 pg/mL
  IL-6 (pg/ml) Subject 2: 118 pg/mL
  effect on the effect of carbachol and LPS on IL-6 responses: suppress
[2]; 5 × 10^6 nM
  effect on expression of the co-stimulatory molecules at the highest dose: enhance
[2]
  effect on basal expression of co-stimulatory molecules CD40 and CD80 by macrophages: inhibit
[2]; [3]
  % Positive CD40+CD80+: 5.8%
[2]; [4]
  % Positive CD40+CD80+: 4.9%
[2]; [5]
  % Positive CD40+CD80+: 6.0%
[2]; [6]
  % Positive CD40+CD80+: 7.9%
[2]; [7]
  % Positive CD40+CD80+: 7.7%
[2]; [8]
  % Positive CD40+CD80+: 6.4%
[2]; [10]
  % Positive CD40+CD80+: 60.3%
[2]; [11]
  % Positive CD40+CD80+: 63.7%
[2]; [12]
  % Positive CD40+CD80+: 71.1%
[2]; [13]
  % Positive CD40+CD80+: 72.9%
[2]; [14]
  % Positive CD40+CD80+: 77.9%
[2]; [15]
  % Positive CD40+CD80+: 67%

## C[N+](C)(C)CCOC(N)=O [Carbachol, carbachol]
[1]; no analgesic
  IL-6 responses to stimulus alone: induced low, but significant TNFα and IL-6 responses

## CC(=O)Nc1ccc(O)cc1 [Acetaminophen, N-acetyl-para-aminophenol]
[1]
  IL-6 (pg/ml) Subject 1: 119 pg/mL
  IL-6 (pg/ml) Subject 2: 135 pg/mL
  effect on the effect of carbachol and LPS on IL-6 responses: suppress
[2]; 5 × 10^6 nM
  effect on expression of the co-stimulatory molecules at the highest dose: enhance
[2]
  effect on basal expression of co-stimulatory molecules CD40 and CD80 by macrophages: inhibit
[2]; [3]
  % Positive CD40+CD80+: 7.5%
[2]; [4]
  % Positive CD40+CD80+: 9.5%
[2]; [5]
  % Positive CD40+CD80+: 8.3%
[2]; [6]
  % Positive CD40+CD80+: 9.8%
[2]; [7]
  % Positive CD40+CD80+: 12%
[2]; [8]
  % Positive CD40+CD80+: 18%
[2]; [9]
  % Positive CD40+CD80+: 63%
[2]; [10]
  % Positive CD40+CD80+: 62.1%
[2]; [11]
  % Positive CD40+CD80+: 66.2%
[2]; [12]
  % Positive CD40+CD80+: 66.8%
[2]; [13]
  % Positive CD40+CD80+: 68.8%
[2]; [14]
  % Positive CD40+CD80+: 72.4%
[2]; [15]
  % Positive CD40+CD80+: 82.7%
[2]; [16]
  % Positive CD40+CD80+: 95.1%

## CC(=O)Oc1ccccc1C(=O)O [Aspirin, Acetylsalicylic acid]
[1]
  IL-6 (pg/ml) Subject 1: 95 pg/mL
  IL-6 (pg/ml) Subject 2: 146 pg/mL
  effect on the effect of carbachol and LPS on IL-6 responses: suppress
[2]; 5 × 10^6 nM
  effect on expression of the co-stimulatory molecules at the highest dose: enhance
[2]
  effect on basal expression of co-stimulatory molecules CD40 and CD80 by macrophages: inhibit
[2]; [3]
  % Positive CD40+CD80+: 7.5%
[2]; [4]
  % Positive CD40+CD80+: 10.5%
[2]; [5]
  % Positive CD40+CD80+: 8%
[2]; [6]
  % Positive CD40+CD80+: 8.3%
[2]; [7]
  % Positive CD40+CD80+: 10.3%
[2]; [8]
  % Positive CD40+CD80+: 11%
[2]; [9]
  % Positive CD40+CD80+: 44%
[2]; [10]
  % Positive CD40+CD80+: 65.7%
[2]; [11]
  % Positive CD40+CD80+: 70.1%
[2]; [12]
  % Positive CD40+CD80+: 75.8%
[2]; [13]
  % Positive CD40+CD80+: 74.7%
[2]; [14]
  % Positive CD40+CD80+: 78.7%
[2]; [15]
  % Positive CD40+CD80+: 80%
[2]; [16]
  % Positive CD40+CD80+: 84.5%

From patent US10596127B2, “Composition for reducing the frequency of urination, method of making and use thereof” (WELLESLEY PHARMACEUTICALS, LLC, priority 2013, dated 2020)
